Laboratory results reported in PubChem BioAssay AID2060625 (Molecular Pharmacology Branch, DTP, NCI, 2025).

Tested on: 186277-243-T-J2-PDC spheroids with HUVEC/MSC, viability
Assay: Anticancer human tumor 186277-243-T-J2-PDC patient-derived colon adenocarcinoma cell line growth inhibition [CLK]
Details: for IC50: curve of first compound; for viability, T/C: stronger effect = lower value
Excerpt: A high-throughput screen of multi-cell type tumor spheroids was designed to identify active combinations of […] and targeted small molecules. Complex spheroids include a stromal component modeled by human endothelial cells (HUVEC) and fibroblasts modeled by human mesenchymal stem cells (MSCs). The concentration ranges selected for each drug and investigational agent were based upon clinically achievable concentrations if the clinical Cmax of the agent was known.
Compounds. The drugs and investigational agents: cirtuvivint (SM08502; NSC835563), CC-671 (NSC850746), vemurafenib (NSC761431), tapotoclax (NSC804041), sotorasib (NSC818433), adagrasib (NSC831453), MRTX-1133 (NSC836407), BAY2416964 (NSC825713), copanlisib (NSC816437), inavolisib (NSC800729), abemaciclib (NSC768073), osimertinib (NSC779217), entinostat (NSC756642), eltanexor (KPT-8602, NSC794443), venetoclax (NSC766270), ceralasertib (NSC777638), bortezomib (NSC756655), olaparib (NSC753686), talazoparib (NSC767125), alisertib (NSC759677), peposertib (NSC802822), gemcitabine (NSC613327), 5-fluorouracil (NSC19893), SN-38 (NSC673596), oxaliplatin (NSC266046), paclitaxel (NSC125973), and doxorubicin (NSC123127), were obtained from the National Cancer Institute (NCI) Developmental Therapeutics Program Chemical Repository. The FDA-approved anticancer drug set is available from the Developmental Therapeutics Program at https://dtp.cancer.gov/organization/dscb/obtaining/available plates.htm. […] The stock solutions were prepared in dimethyl sulfoxide (DMSO, Sigma-Aldrich, St. Louis, MO, cat. D2650), except for the platinum complexes which were prepared in saline (Quality Biological, Gaithersburg, MD, cat. 114-055-101), at 800-fold the tested concentration and stored at -70 degrees C prior to their use. All drugs and investigational agents were tested over a range starting from a high concentration at or near the clinical Cmax and decreasing in half-log increments. If the clinical Cmax for an agent had not been determined, the highest concentration tested was 10 microM.
Cell Culture. All cells were maintained in an incubator at 37 degrees C and 5% CO2 with 95% humidity. The PDC lines were cultured according to standard operating procedures established by the NCI PDMR. Briefly, all PDCs were thawed and cultured in Matrigel-coated flasks prepared with a working solution of 1X Ham's F-12 nutrient mix, without supplementation (Invitrogen, Waltham, MA, cat. 11765054), 100 U/mL penicillin-streptomycin (Invitrogen, cat. 15140122), and 2.5% Matrigel (Corning Inc., Corning, NY, cat. 354248) for the first three passages. The 947758-054-R-J2-PDC line was cultured in 6B/Colon 1A media, which includes advanced DMEM/F-12 (Thermo Fisher Scientific, cat. 12634028), 10 mM HEPES (Thermo Fisher Scientific, cat. 15630080), 1X GlutaMAX supplement (Thermo Fisher Scientific, cat. 35050061), 0.1 mg/mL primocin (InvivoGen, cat. ant-pm-2), 10% defined fetal bovine serum, heat inactivated (HyClone Laboratories Inc., cat. SH30070.03HI), 1.25 mM N-Acetyl-L-cysteine (Sigma-Aldrich, cat. A9165), 10 mM nicotinamide (Sigma-Aldrich, cat. N0636), 1X B-27 supplement (Thermo Fisher Scientific, cat. 17504044), 1X N-2 supplement (Thermo Fisher Scientific, cat. 17502048), and 10 microM Y-27632 dihydrochloride (Tocris Bioscience, cat. 1254). The 876862-298-R-J1-PDC was cultured in 6E media, which includes all 6B/Colon 1A media components plus 50% L-WRN conditioned media (ATCC, cat. CRL-3276), 50 ng/mL recombinant human EGF recombinant protein (hEGF; Thermo Fisher Scientific, cat. PHG0311), 10 ng/mL recombinant human fibroblast growth factor 10 (hGFG-10; PeproTech, cat. 100-26), 1 ng/mL recombinant human fibroblast growth factor 2 (hFGF-2; PeproTech, cat. 100-18B), and 1 µM prostaglandin E2 (PGE2; Tocris, cat. 2296). The 227483-062-R1-J1-PDC line was cultured in Panc media, containing all 6E components except hFGF-2, with the addition of 500 nM SB-431542 (Selleckchem, cat. S1067) and 10 nM gastrin (Tocris, cat. 3006). […]

[1] = second compound 0.0316 µM, first compound 0.0316 µM
[2] = second compound 0.0316 µM, first compound 0.1 µM
[3] = second compound 0.0316 µM, first compound 0.316 µM
[4] = second compound 0.0316 µM, first compound 1 µM
[5] = second compound 0.0316 µM, first compound 3.16 µM
[6] = second compound 0.0316 µM, first compound 10 µM
[7] = second compound 0.1 µM, first compound 0.0316 µM
[8] = second compound 0.1 µM, first compound 0.1 µM
[9] = second compound 0.1 µM, first compound 0.316 µM
[10] = second compound 0.1 µM, first compound 1 µM
[11] = second compound 0.1 µM, first compound 3.16 µM
[12] = second compound 0.1 µM, first compound 10 µM
[13] = second compound 0.316 µM, first compound 0.0316 µM
[14] = second compound 0.316 µM, first compound 0.1 µM
[15] = second compound 0.316 µM, first compound 0.316 µM
[16] = second compound 0.316 µM, first compound 1 µM
[17] = second compound 0.316 µM, first compound 3.16 µM
[18] = second compound 0.316 µM, first compound 10 µM
[19] = second compound 1 µM, first compound 0.0316 µM
[20] = second compound 1 µM, first compound 0.1 µM
[21] = second compound 1 µM, first compound 0.316 µM
[22] = second compound 1 µM, first compound 1 µM
[23] = second compound 1 µM, first compound 3.16 µM
[24] = second compound 1 µM, first compound 10 µM
[25] = second compound 3.16 µM, first compound 0.0316 µM
[26] = second compound 3.16 µM, first compound 0.1 µM
[27] = second compound 3.16 µM, first compound 0.316 µM
[28] = second compound 3.16 µM, first compound 1 µM
[29] = second compound 3.16 µM, first compound 3.16 µM
[30] = second compound 3.16 µM, first compound 10 µM
[31] = second compound 10 µM, first compound 0.0316 µM
[32] = second compound 10 µM, first compound 0.1 µM
[33] = second compound 10 µM, first compound 0.316 µM
[34] = second compound 10 µM, first compound 1 µM
[35] = second compound 10 µM, first compound 3.16 µM
[36] = second compound 10 µM, first compound 10 µM
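Further: compound exposure lasted seven days before readout.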
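Wherever viability, T/C is given: 100% = DMSO vehicle control wells.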

Which results are given for `COC1C=CCC(C)C(C)S(=O)(=O)NC(=O)c2ccc3c(c2)N(CC2CCC21)CC1(CCCc2cc(Cl)ccc21)CO3` (centres undefined) + CNC(=O)c1ccc(Nc2nc(OC3CCCC3)c3c(-c4ccc5nc(C)oc5c4)c[nH]c3n2)c(OC)c1?
IC50 (second compound 0.0316 µM): 3.55 µM; IC50 (second compound 0.1 µM): 0.0901 µM; IC50 (second compound 0.316 µM): < 0.0316 µM; IC50 (second compound 1 µM): < 0.0316 µM; IC50 (second compound 3.16 µM): < 0.0316 µM; IC50 (second compound 10 µM): < 0.0316 µM; viability, T/C [1]: 101%; viability, T/C [2]: 101%; viability, T/C [3]: 103%; viability, T/C [4]: 83%; viability, T/C [5]: 55.9%; viability, T/C [6]: 4.26%; viability, T/C [7]: 64%; viability, T/C [8]: 50.2%; viability, T/C [9]: 29.8%; viability, T/C [10]: 19.8%; viability, T/C [11]: 9.64%; viability, T/C [12]: 3.08%; viability, T/C [13]: 39.9%; viability, T/C [14]: 32%; viability, T/C [15]: 19.9%; viability, T/C [16]: 12.5%; viability, T/C [17]: 6.42%; viability, T/C [18]: 2.78%; viability, T/C [19]: 30.1%; viability, T/C [20]: 23.2%; viability, T/C [21]: 14.7%; viability, T/C [22]: 10.7%; viability, T/C [23]: 5.35%; viability, T/C [24]: 4.55%; viability, T/C [25]: 31.5%; viability, T/C [26]: 27%; viability, T/C [27]: 17.6%; viability, T/C [28]: 10.1%; viability, T/C [29]: 6.79%; viability, T/C [30]: 2.91%; viability, T/C [31]: 36.1%; viability, T/C [32]: 25.4%; viability, T/C [33]: 20.5%; viability, T/C [34]: 11.9%; viability, T/C [35]: 5.93%; viability, T/C [36]: 2.8%

Which results are given for `COc1ccc([C@@H](O)c2cc(-c3ncnc4cc(N5CCOCC5)ccc34)c(F)cc2Cl)nn1` + CNC(=O)c1ccc(Nc2nc(OC3CCCC3)c3c(-c4ccc5nc(C)oc5c4)c[nH]c3n2)c(OC)c1?
IC50 (second compound 0.0316 µM): 7.66 µM; IC50 (second compound 0.1 µM): 0.384 µM; IC50 (second compound 0.316 µM): < 0.0316 µM; IC50 (second compound 1 µM): < 0.0316 µM; IC50 (second compound 3.16 µM): < 0.0316 µM; IC50 (second compound 10 µM): < 0.0316 µM; viability, T/C [1]: 102%; viability, T/C [2]: 86.8%; viability, T/C [3]: 110%; viability, T/C [4]: 87.6%; viability, T/C [5]: 73.7%; viability, T/C [6]: 43%; viability, T/C [7]: 71.8%; viability, T/C [8]: 62.5%; viability, T/C [9]: 50.2%; viability, T/C [10]: 42.7%; viability, T/C [11]: 31.9%; viability, T/C [12]: 23.5%; viability, T/C [13]: 38.7%; viability, T/C [14]: 40.7%; viability, T/C [15]: 29.9%; viability, T/C [16]: 23.7%; viability, T/C [17]: 18.6%; viability, T/C [18]: 14.5%; viability, T/C [19]: 30.4%; viability, T/C [20]: 25.2%; viability, T/C [21]: 23.4%; viability, T/C [22]: 16.2%; viability, T/C [23]: 12.9%; viability, T/C [24]: 12.2%; viability, T/C [25]: 27.1%; viability, T/C [26]: 29.2%; viability, T/C [27]: 23.2%; viability, T/C [28]: 18.5%; viability, T/C [29]: 16%; viability, T/C [30]: 10.7%; viability, T/C [31]: 28.7%; viability, T/C [32]: 29.5%; viability, T/C [33]: 23.2%; viability, T/C [34]: 19.8%; viability, T/C [35]: 17.2%; viability, T/C [36]: 9%
